Assay results published in ChEMBL document CHEMBL2176989, “Design, synthesis, and pharmacological evaluation of piperidin-4-yl amino aryl sulfonamides: novel, potent, selective, orally active, and brain penetrant 5-HT₆ receptor antagonists” (J Med Chem, 2012).
The source made the active and inactive calls. No cut-off for these calls is given here.

How the values were obtained:
Rattus norvegicus [1] = test: Procognitive activity in Wistar rat assessed as increase in acetylcholine level in medial prefrontal cortex at 10 mg/kg, sc administered as an acute dose measured up to 4 hrs by brain microdialysis method; type: functional, organism-based; parameters: dose 10 mg/kg
Rattus norvegicus [2] = test: Procognitive activity in sc dosed Wistar rat assessed as increase in acetylcholine level in medial prefrontal cortex administered as an acute dose measured up to 4 hrs by brain microdialysis method; type: functional, organism-based
Rattus norvegicus [3] = test: Procognitive activity in Wistar rat assessed as reversal of time delay-induced memory deficit at 1 to 10 mg/kg, po by object recognition test; type: functional, organism-based
Rattus norvegicus [4] = test: Procognitive activity in Wistar rat assessed as reversal of time delay-induced memory deficit at 0.3 mg/kg, po by object recognition test; type: functional, organism-based; parameters: dose 0.3 mg/kg
[5] = Oral bioavailability in fasted beagle dog at 3 mg/kg; type: ADME, organism-based, Canis lupus familiaris; conditions: in vivo
[6] = AUC (0 to 24 hrs) in fasted beagle dog at 3 mg/kg, po; type: ADME, organism-based, Canis lupus familiaris; parameters: time < 24 hr, dose 3 mg/kg, route oral; conditions: plasma
[7] = Oral bioavailability in fasted Wistar rat at 5 mg/kg; type: ADME, organism-based; conditions: in vivo
[8] = AUC (0 to 24 hrs) in fasted Wistar rat at 5 mg/kg, po; type: ADME, organism-based; parameters: time < 24 hr, dose 5 mg/kg, route oral; conditions: plasma
[9] = Cmax in fasted Wistar rat at 5 mg/kg, po; type: ADME, organism-based; parameters: dose 5 mg/kg, route oral; conditions: in vivo
[10] = Tmax in fasted Wistar rat at 5 mg/kg, po; type: ADME, organism-based; parameters: dose 5 mg/kg, route oral; conditions: in vivo
[11] = Apparent volume of distribution in beagle dog at 1 mg/kg, iv; type: ADME, organism-based, Canis lupus familiaris; parameters: dose 1 mg/kg, route intravenous; conditions: in vivo, read-out: Vz
[12] = Half life in beagle dog at 1 mg/kg, iv; type: ADME, organism-based, Canis lupus familiaris; parameters: dose 1 mg/kg, route intravenous; conditions: in vivo
[13] = Clearance in Wistar rat at 5 mg/kg, iv; type: ADME, organism-based; parameters: dose 5 mg/kg, route intravenous; conditions: in vivo
[14] = Half life in Wistar rat at 5 mg/kg, iv; type: ADME, organism-based; parameters: dose 5 mg/kg, route intravenous; conditions: in vivo
[15] = Apparent volume of distribution in Wistar rat at 5 mg/kg, iv; type: ADME, organism-based; parameters: dose 5 mg/kg, route intravenous; conditions: in vivo, read-out: Vz
[16] = target: 5-hydroxytryptamine receptor 4 (Homo sapiens, UniProt Q13639); test: Binding affinity to 5HT4 receptor
5-hydroxytryptamine receptor 4, sequence (Q13639 whole entry): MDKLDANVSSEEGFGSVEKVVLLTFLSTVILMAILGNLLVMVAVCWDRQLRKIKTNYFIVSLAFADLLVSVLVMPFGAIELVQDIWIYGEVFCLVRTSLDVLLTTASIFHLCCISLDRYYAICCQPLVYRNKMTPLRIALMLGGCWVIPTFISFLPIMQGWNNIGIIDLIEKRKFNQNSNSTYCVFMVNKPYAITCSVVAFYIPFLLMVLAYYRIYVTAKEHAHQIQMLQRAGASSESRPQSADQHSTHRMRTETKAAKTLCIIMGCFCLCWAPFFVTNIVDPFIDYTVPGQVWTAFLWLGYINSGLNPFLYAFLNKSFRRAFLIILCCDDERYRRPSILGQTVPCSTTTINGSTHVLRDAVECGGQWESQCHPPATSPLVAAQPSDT

[17] = target: T1, 5-hydroxytryptamine receptor 3A (Homo sapiens, UniProt P46098); test: Binding affinity to 5HT3 receptor
T1 sequence (P46098 whole entry): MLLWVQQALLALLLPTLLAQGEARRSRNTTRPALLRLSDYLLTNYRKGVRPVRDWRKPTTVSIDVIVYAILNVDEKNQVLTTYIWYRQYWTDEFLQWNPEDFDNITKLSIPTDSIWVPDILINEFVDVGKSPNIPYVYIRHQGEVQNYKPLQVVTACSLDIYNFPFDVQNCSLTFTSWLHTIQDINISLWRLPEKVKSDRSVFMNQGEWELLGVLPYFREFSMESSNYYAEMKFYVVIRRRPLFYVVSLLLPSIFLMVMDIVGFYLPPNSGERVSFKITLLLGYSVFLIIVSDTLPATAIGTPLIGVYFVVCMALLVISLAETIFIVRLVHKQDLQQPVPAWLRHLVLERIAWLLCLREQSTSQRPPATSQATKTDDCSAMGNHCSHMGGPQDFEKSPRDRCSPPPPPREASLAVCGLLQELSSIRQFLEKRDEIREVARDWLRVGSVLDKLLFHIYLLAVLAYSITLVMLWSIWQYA

[18] = target: Sodium-dependent dopamine transporter (Homo sapiens, UniProt Q01959); test: Binding affinity to dopamine transporter
Sodium-dependent dopamine transporter, sequence (Q01959 whole entry): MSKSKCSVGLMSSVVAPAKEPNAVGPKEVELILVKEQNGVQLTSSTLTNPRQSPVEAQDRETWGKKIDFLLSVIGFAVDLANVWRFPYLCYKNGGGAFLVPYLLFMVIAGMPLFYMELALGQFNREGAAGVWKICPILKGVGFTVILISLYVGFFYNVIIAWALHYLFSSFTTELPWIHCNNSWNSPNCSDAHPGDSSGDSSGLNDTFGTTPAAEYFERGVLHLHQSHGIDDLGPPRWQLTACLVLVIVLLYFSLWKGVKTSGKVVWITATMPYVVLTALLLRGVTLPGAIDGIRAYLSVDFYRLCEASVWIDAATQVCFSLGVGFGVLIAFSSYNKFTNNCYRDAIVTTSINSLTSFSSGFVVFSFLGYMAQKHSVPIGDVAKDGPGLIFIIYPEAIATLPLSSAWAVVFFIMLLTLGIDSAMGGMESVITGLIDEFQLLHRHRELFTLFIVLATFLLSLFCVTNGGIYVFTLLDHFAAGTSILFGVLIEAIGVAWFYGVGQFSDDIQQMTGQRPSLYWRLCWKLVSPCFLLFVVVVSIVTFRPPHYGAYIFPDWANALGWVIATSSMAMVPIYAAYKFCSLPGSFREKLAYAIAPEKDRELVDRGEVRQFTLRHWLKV

[19] = target: Sodium-dependent serotonin transporter (Homo sapiens, UniProt P31645); test: Binding affinity to SERT
Sodium-dependent serotonin transporter, sequence (P31645 whole entry): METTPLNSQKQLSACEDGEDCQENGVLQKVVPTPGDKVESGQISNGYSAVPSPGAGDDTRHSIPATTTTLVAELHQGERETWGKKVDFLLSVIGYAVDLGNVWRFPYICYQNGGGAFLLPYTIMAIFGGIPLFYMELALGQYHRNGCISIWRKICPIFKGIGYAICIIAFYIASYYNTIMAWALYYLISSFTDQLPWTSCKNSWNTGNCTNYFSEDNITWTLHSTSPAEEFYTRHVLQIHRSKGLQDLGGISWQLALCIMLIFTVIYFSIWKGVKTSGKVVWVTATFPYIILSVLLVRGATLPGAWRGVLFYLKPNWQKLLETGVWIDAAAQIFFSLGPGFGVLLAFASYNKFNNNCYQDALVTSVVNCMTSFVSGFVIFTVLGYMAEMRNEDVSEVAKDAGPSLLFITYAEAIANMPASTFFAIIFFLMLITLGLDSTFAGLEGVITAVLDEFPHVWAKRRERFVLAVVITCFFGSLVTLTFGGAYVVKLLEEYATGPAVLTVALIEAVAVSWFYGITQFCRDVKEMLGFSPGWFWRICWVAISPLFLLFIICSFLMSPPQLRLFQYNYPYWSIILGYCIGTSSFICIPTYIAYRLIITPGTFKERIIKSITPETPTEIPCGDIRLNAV

[20] = target: T2, Alpha-1B adrenergic receptor (Homo sapiens, UniProt P35368); test: Binding affinity to adrenergic alpha1B receptor
T2 sequence (P35368 whole entry): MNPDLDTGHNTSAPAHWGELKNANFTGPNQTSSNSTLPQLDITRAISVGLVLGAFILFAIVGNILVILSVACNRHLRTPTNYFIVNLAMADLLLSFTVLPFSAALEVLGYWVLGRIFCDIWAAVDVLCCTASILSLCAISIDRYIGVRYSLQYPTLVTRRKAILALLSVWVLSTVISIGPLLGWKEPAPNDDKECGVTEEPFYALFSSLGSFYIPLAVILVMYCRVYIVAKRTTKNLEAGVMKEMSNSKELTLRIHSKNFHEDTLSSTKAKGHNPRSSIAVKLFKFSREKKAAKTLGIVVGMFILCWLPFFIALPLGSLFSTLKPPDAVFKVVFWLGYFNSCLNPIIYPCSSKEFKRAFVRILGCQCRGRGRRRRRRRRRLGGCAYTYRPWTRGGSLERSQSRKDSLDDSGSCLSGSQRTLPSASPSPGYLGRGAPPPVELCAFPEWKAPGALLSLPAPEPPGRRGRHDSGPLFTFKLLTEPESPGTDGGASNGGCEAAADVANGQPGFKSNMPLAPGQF

Histamine H1 receptor = Histamine H1 receptor (Homo sapiens, UniProt P35367); test: Binding affinity to histamine H1 receptor
Histamine H1 receptor, sequence (P35367 whole entry): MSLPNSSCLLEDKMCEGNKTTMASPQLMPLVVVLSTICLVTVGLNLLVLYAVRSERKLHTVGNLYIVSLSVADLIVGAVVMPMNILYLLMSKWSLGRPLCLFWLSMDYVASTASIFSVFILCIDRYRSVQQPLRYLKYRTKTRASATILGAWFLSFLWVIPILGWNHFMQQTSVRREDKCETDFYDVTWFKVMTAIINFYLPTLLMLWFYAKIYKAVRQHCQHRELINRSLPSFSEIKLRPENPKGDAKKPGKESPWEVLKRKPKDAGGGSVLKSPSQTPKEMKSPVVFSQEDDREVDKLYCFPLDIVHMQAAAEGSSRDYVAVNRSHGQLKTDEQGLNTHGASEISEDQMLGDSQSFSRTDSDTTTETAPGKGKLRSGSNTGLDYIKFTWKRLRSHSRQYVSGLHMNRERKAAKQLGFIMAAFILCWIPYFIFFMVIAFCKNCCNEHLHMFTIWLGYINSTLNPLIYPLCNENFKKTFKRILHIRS

D(2) dopamine receptor = D(2) dopamine receptor (Homo sapiens, UniProt P14416); test: Binding affinity to dopamine D2 receptor
D(2) dopamine receptor, sequence (P14416 whole entry): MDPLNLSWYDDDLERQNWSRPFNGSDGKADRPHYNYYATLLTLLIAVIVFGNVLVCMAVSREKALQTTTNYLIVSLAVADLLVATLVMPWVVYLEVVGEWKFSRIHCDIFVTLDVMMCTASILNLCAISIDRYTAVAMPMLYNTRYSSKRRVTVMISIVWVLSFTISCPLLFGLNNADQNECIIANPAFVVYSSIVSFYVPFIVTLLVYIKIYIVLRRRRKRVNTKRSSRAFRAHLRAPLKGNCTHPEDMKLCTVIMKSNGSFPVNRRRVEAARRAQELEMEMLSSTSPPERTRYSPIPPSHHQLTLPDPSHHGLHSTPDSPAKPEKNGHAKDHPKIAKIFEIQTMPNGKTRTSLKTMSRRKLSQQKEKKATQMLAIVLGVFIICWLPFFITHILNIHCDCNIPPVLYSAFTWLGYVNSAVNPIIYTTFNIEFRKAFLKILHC

[21] = target: T3, 5-hydroxytryptamine receptor 2C (Homo sapiens, UniProt P28335); test: Binding affinity to 5HT2C receptor
T3 sequence (P28335 whole entry): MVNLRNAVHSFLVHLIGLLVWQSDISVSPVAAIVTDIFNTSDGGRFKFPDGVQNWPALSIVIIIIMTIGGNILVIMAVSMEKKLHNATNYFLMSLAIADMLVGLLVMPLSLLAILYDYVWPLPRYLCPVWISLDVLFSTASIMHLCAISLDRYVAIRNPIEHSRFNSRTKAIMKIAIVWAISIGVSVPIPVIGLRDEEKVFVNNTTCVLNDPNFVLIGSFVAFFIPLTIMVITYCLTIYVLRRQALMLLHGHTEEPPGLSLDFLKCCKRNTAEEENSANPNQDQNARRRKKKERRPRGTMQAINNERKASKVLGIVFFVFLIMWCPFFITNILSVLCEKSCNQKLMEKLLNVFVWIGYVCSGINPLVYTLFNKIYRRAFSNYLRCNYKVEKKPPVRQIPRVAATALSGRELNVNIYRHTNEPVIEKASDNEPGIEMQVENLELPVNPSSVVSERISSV

[22] = target: 5-hydroxytryptamine receptor 2A (Homo sapiens, UniProt P28223); test: Binding affinity to 5HT2A receptor
5-hydroxytryptamine receptor 2A, sequence (P28223 whole entry): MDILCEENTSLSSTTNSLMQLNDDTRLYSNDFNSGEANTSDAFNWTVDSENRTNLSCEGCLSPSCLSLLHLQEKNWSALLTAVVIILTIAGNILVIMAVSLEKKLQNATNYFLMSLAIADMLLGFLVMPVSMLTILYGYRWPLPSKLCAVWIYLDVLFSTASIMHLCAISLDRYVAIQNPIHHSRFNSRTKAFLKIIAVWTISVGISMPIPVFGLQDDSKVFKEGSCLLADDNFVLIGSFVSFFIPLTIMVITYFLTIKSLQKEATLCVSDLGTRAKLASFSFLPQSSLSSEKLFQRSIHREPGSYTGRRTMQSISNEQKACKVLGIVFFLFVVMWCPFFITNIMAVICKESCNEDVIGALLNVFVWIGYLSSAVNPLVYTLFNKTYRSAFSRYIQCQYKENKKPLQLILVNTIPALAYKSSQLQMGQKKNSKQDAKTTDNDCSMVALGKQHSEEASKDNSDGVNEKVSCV

[23] = Ratio of drug uptake in brain to plasma in Wistar rat at 10 mg/kg, po after 1 hr; type: ADME, organism-based; parameters: dose 10 mg/kg, route oral; conditions: read-out: BPR
[24] = target: 5-hydroxytryptamine receptor 6 (Homo sapiens) (UniProt P50406); test: Antagonist activity at human recombinant 5HT6 receptor expressed in CHO cells assessed as inhibition of 5HT-induced luciferase activity after 4 hrs by reporter gene assay relative to control; type: functional, cell-based
5-hydroxytryptamine receptor 6 (Homo sapiens), sequence (P50406 whole entry): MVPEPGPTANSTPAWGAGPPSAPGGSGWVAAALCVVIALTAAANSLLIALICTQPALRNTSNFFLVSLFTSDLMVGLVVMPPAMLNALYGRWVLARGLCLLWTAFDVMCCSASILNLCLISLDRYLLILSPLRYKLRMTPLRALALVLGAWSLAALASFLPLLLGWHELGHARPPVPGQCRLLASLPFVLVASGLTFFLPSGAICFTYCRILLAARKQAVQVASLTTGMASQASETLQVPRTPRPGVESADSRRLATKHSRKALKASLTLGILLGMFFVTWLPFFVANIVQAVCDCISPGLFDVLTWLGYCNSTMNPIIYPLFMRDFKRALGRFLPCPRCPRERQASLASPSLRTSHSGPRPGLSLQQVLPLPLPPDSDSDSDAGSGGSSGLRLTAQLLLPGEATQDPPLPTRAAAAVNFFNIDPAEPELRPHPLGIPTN

[25] = target: 5-hydroxytryptamine receptor 6 (Homo sapiens) (UniProt P50406); test: Antagonist activity at human recombinant 5HT6 receptor expressed in CHO cells assessed as inhibition of 5HT-induced luciferase activity after 4 hrs by reporter gene assay; type: functional, cell-based
[26] = Drug metabolism in human liver microsomes at 2.5 uM at 30 mins by LC-MS/MS analysis; type: ADME, Microsome; conditions: read-out: Drug metabolism
Cytochrome P450 2D6 = Cytochrome P450 2D6 (Homo sapiens, UniProt P10635); test: Inhibition of CYP2D6 in human liver microsomes using dextromethorphan as substrate after 10 mins by LC-MS/MS analysis in presence of NADPH
Cytochrome P450 2D6, sequence (P10635 whole entry): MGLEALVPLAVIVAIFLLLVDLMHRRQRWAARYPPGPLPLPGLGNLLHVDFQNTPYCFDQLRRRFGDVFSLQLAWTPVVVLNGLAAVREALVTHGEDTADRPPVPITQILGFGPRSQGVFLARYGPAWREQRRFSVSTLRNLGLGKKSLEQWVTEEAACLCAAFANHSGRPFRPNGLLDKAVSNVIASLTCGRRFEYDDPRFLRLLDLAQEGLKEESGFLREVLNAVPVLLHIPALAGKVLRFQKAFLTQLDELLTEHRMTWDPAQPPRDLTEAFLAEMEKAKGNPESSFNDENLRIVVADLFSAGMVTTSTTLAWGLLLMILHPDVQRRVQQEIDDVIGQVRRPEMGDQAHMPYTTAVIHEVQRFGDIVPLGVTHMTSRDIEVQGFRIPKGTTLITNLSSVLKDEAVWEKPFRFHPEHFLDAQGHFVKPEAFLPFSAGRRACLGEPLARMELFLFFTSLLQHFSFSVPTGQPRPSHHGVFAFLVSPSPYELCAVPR

COc1ccc(S(=O)(=O)n2cc(C)c3cc(Cl)cnc32)cc1NC1CCN(C)CC1
Activity (Rattus norvegicus [1]): Active | Activity (Rattus norvegicus [2]): Dose-dependent effect | Activity (Rattus norvegicus [3]): Active | Activity (Rattus norvegicus [4]): Active | bioavailability [5]: 92% | AUC(0-t) at 24 h [6]: 3630 ng·h/mL | bioavailability [7]: 29% | AUC(0-t) at 24 h [8]: 389 ng·h/mL | Cmax [9]: 156 ng/mL | Tmax [10]: 1 h | Vd [11]: 2.1 L/kg | half-life [12]: 2.3 h | clearance [13]: 64 mL/min/kg | half-life [14]: 1.7 h | Vd [15]: 10 L/kg | EC50 [16]: > 10000 nM | IC50 [17]: > 10000 nM | Ki [18]: 3220 nM | Ki [19]: > 10000 nM | Ki [20]: 3790 nM | Ki (Histamine H1 receptor): 586 nM | Ki (D(2) dopamine receptor): 1810 nM | Ki [21]: 2240 nM | Ki [22]: 2370 nM | Kp at 1 h [23]: 0.9 | Imax [24]: 100% | Kb [25]: 0.04 nM | metabolised at 0.5 h, 2.5 µM [26]: 72% | IC50 (Cytochrome P450 2D6): > 45000 nM
